Source: the NIST ThermoML archive (doi:10.1016/j.jct.2014.05.015)
± gives the expanded uncertainty stated by the source.

What was measured:
[1] = mn = molality of the nth substance listed, in mol/kg; settings: 100 kPa, Liquid; for speed of sound: Frequency=3 MHz, Sing-around technique in a fixed-path interferometer; for mass density: Vibrating tube method
[2] = 100 kPa, Liquid

O=C[C@H](O)[C@@H](O)[C@H](O)[C@H](O)CO [D-glucose] + O
[1]
Settings	mass density, 293.15 K [kg/m3]	mass density, 298.15 K [kg/m3]	mass density, 303.15 K [kg/m3]	mass density, 308.15 K [kg/m3]	mass density, 313.15 K [kg/m3]	speed of sound, 293.15 K [m/s]	speed of sound, 298.15 K [m/s]	speed of sound, 303.15 K [m/s]	speed of sound, 308.15 K [m/s]	speed of sound, 313.15 K [m/s]
m1 = 0.1	1005.07 ± 0.26	1003.87 ± 0.26	1002.44 ± 0.26	1000.79 ± 0.26	998.945 ± 0.26	1489.2 ± 1.6	1502.9 ± 1.6	1514.8 ± 1.6	1525.3 ± 1.6	1534.1 ± 1.6
m1 = 0.2	1012.08 ± 0.27	1010.89 ± 0.27	–	–	1005.86 ± 0.26	1496 ± 1.6	1509.4 ± 1.6	1521.2 ± 1.6	1531.2 ± 1.6	1539.8 ± 1.6
m1 = 0.3	1018.81 ± 0.27	1017.52 ± 0.27	1016.01 ± 0.27	1014.29 ± 0.27	1012.36 ± 0.27	1502.5 ± 1.6	1515.8 ± 1.6	1527.3 ± 1.6	1537.2 ± 1.6	1545.7 ± 1.6

O [water]
Settings	mass density [kg/m3]
[2], 308.15 K, Vibrating tube method	994.061 ± 0.26

Settings	speed of sound [m/s]
[2], 313.15 K, Frequency=3 MHz, Sing-around technique in a fixed-path interferometer	1528.8 ± 1.6

OC[C@H]1O[C@@](CO)(O[C@H]2O[C@H](CO)[C@@H](O)[C@H](O)[C@H]2O)[C@@H](O)[C@@H]1O [D-sucrose] + O
[1]
Settings	mass density, 293.15 K [kg/m3]	mass density, 298.15 K [kg/m3]	mass density, 303.15 K [kg/m3]	mass density, 308.15 K [kg/m3]	mass density, 313.15 K [kg/m3]	speed of sound, 293.15 K [m/s]	speed of sound, 298.15 K [m/s]	speed of sound, 303.15 K [m/s]	speed of sound, 308.15 K [m/s]	speed of sound, 313.15 K [m/s]
m1 = 0.1	1011.49 ± 0.14	1010.26 ± 0.14	1008.81 ± 0.14	1007.14 ± 0.13	1005.28 ± 0.13	1492.3 ± 1.3	1505.9 ± 1.3	1517.8 ± 1.3	1528.1 ± 1.3	1536.7 ± 1.3
m1 = 0.2	1024.67 ± 0.14	1023.37 ± 0.14	1021.85 ± 0.14	1020.13 ± 0.14	1018.22 ± 0.14	1502.4 ± 1.3	1515.7 ± 1.3	1527 ± 1.3	1536.9 ± 1.3	1545.4 ± 1.3
m1 = 0.3	1037.84 ± 0.14	1036.47 ± 0.14	1034.89 ± 0.14	1033.11 ± 0.14	1031.16 ± 0.14	1512.9 ± 1.3	1525.7 ± 1.3	1536.8 ± 1.3	1546.3 ± 1.3	1554.2 ± 1.4
